# Values of other authors, collected in patent publication US4144131A, “Immobilization of enzymes on human tissue or erythrocytes” (Wisconsin Alumni Research Foundation, priority 1974, dated 1979).
# Test system: soybean lipoxygenase
# Details: read-out: Km for oxygen, compared with oxygen concentrations in tumor tissue
smiles,measurement,value
O=O [oxygen],Km,30 µM
